Measured values published in US10793582B2, “Bicyclic heterocyclic compound” (MITSUBISHI TANABE PHARMA CORPORATION, priority 2015, dated 2020).

Target: human recombinant KAT-II (Homo sapiens (Human), UniProt Q8N5Z0)
Experiment: KAT-II inhibitory test
Type: biochemical
Conditions: 3.0 μmol/L kynurenine, 37° C. for 1 hr, kynurenic acid by HPLC
Procedure: The compounds described in the above-mentioned Examples were used for the KAT-II inhibitory test.
Human recombinant KAT-II was prepared as follows.
His tag and maltose binding protein tag were added to the N-terminal of a gene encoding human KAT-II (Genbank accession number: AF481738.1), and the obtained gene was incorporated into pET32 (Merck Nihon Millipore), which is an Escherichia coli expression vector. Human recombinant KAT-II produced by BL21(DE3) Escherichia coli (Merck Nihon Millipore, 69450) transformed using the plasmid was purified using an amylose resin column (New England Biolabs, #800-21 L).
The inhibitory action of the test compound on human recombinant KAT-II was determined by the following method.
To a reaction mixture (45 μL) containing 3.0 μmol/L kynurenine, 10 μmol/L pyridoxal phosphate, 2.0 ng/μL human recombinant KAT-II, and 150 mmol/L tris(hydroxymethyl)aminomethane-acetate buffer (pH 8.0) was added a 10% dimethyl sulfoxide solution (5 μL) of each test compound prepared, and the mixture was reacted at 37° C. for 1 hr. After the reaction, 50% trichloroacetic acid (5 μL) was added to terminate the reaction.
The resultant kynurenic acid was quantified as follows by high performance liquid chromatography. An enzyme reaction mixture was separated by an octadecylsilane reversed-phase column (SC-50DS, Eicom Corporation; mobile phase: 250 mmol/L zinc acetate, 50 mmol/L sodium acetate, and 5.0% acetonitrile (pH 6.2)) incubated at 30° C., and kynurenic acid was quantified using a fluorescence detector (RF-20Axs, Shimadzu Corporation) at excitation wavelength 354 nm, detection wavelength 460 nm. The analytical curve was drawn every time by an external standard method. Each test compound was tested by dual measurement at each concentration. The kynurenic acid level in the presence of a test compound at each concentration was converted into % relative to kynurenic acid resulting from a reaction with an enzyme alone as 100%, and the obtained values were fitted to S-curve to determine IC50.

Sequence of human recombinant KAT-II (Q8N5Z0 30-425): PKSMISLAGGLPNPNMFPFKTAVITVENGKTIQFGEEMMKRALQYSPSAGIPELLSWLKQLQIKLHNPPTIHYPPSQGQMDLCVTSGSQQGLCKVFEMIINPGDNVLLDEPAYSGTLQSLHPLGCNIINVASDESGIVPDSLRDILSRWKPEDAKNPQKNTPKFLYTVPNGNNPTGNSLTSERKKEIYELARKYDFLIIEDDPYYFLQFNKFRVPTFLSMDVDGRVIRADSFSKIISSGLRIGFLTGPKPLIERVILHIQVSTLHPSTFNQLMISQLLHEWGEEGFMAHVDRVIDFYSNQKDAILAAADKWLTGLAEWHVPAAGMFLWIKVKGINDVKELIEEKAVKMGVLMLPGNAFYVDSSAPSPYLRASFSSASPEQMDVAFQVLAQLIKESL

Going from `CCOc1ncnc2nc(N3CCC[C@@H]3C(=O)NCc3ccccc3)sc12` [Example 19, (R)—N-benzyl-1-(7-ethoxy[1,3]thiazolo[4,5-d]pyrimidin-2-yl)pyrrolidine-2-carboxamide] to `CCc1ncnc2nc(N3CCC[C@@H]3C(=O)NCc3ccccc3)sc12` [Example 24], the IC50 rises from 37 nM to 200 nM (5.4-fold). The first is the more potent here.

Compared with `O=C(NCc1ccccc1)[C@H]1CCCN1c1nc2ncnc(C3CC3)c2s1` [Example 23, (R)—N-benzyl-1-(7-cyclopropyl[1,3]thiazolo[4,5-d]pyrimidin-2-yl)pyrrolidine-2-carboxamide], `O=C(NCc1ccccc1)[C@H]1CSCN1c1nc2ncnc(C3CC3)c2s1` [Example 100, (S)—N-benzyl-3-(7-cyclopropyl[1,3]thiazolo[4,5-d]pyrimidin-2-yl)-1,3-thiazolidine-4-carboxamide] is 9.2-fold higher in IC50: 26 nM for the first, 240 nM for the second.

Going from `CCCc1ncnc2nc(N3CCC[C@@H]3C(=O)NCc3ccccc3)sc12` [Example 26] to `COCCc1ncnc2nc(N3CCC[C@@H]3C(=O)NCc3ccccc3)sc12` [Example 32], the IC50 rises from 120 nM to 390 nM (3.2-fold).

`CC(C)c1ncnc2nc(N3CCC[C@@H]3C(=O)NCc3ccccc3)sc12` [Example 28] and `CC(C)(C)c1ncnc2nc(N3CCC[C@@H]3C(=O)NCc3ccccc3)sc12` [Example 30] are within 1.5-fold of each other in IC50: 190 nM for the first, 270 nM for the second.

Going from `CC1(c2ncnc3nc(N4CCC[C@@H]4C(=O)NCc4ccccc4)sc23)CC1` [Example 31, (R)—N-benzyl-1-[7-(1-methylcyclopropyl)[1,3]thiazolo[4,5-d]pyrimidin-2-yl]pyrrolidine-2-carboxamide] to `COCc1ncnc2nc(N3CCC[C@@H]3C(=O)NCc3ccccc3)sc12` [Example 33], the IC50 rises from 65 nM to 600 nM (9.2-fold).

Compared with `COCc1ncnc2nc(N3CCC[C@@H]3C(=O)N[C@H](C)c3ccccc3)sc12` [Example 34], `COCc1ccnc2nc(N3CCC[C@@H]3C(=O)NCc3ccccc3)sc12` [Example 141] is 2-fold lower in IC50: 640 nM for the first, 320 nM for the second.

Going from `O=C(NCc1ccccc1)[C@H]1CCCN1c1nc2ncnc(-c3ccccn3)c2s1` [Example 35] to `O=C(NCc1ccccc1)[C@H]1CCCN1c1nc2ncnc(Oc3ccccc3)c2s1` [Example 66], the IC50 falls from 290 nM to 12 nM (24-fold).

First: C[C@H](C(=O)NCc1ccccc1)N(C)c1nc2ncnc(C3CC3)c2s1 [Example 36, (R)—N-benzyl-2-[N′-(7-cyclopropyl[1,3]thiazolo[4,5-d]pyrimidin-2-yl)-N′-methylamino]propionamide]
Second: CN(c1nc2ncnc(C3CC3)c2s1)[C@@H](C(=O)NCc1ccccc1)C1CC1 [Example 93]
The IC50 of the first is 2.2-fold lower: 64 nM for the first, 140 nM for the second. The first is the more potent here.

`COCCN(c1nc2ncnc(C3CC3)c2s1)[C@H](C)C(=O)NCc1ccccc1` [Example 38] and `C[C@H](C(=O)NCc1ccccc1)N(Cc1ccccn1)c1nc2ncnc(C3CC3)c2s1` [Example 39] are within 1.5-fold of each other in IC50: 410 nM for the first, 350 nM for the second.

Compared with `CCc1nc(C2CC2)nc2nc(N3CCC[C@@H]3C(=O)NCc3ccccc3)sc12` [Example 41], `CN(C)c1nc(C2CC2)c2sc(N3CCC[C@@H]3C(=O)NCc3ccccc3)nc2n1` [Example 106, (R)—N-benzyl-1-[7-cyclopropyl-5-(N,N-dimethylamino)[1,3]thiazolo[4,5-d]pyrimidin-2-yl]pyrrolidine-2-carboxamide] is 5.4-fold higher in IC50: 170 nM for the first, 920 nM for the second.

First: O=C(NCc1ccccc1)[C@H]1CCCN1c1nc2nc(CC3CCOCC3)nc(C3CC3)c2s1 [Example 46]
Second: O=C(NCc1ccccc1)[C@H]1CCCN1c1nc2nc(COC3CCOCC3)nc(C3CC3)c2s1 [Example 83]
The IC50 of the first is 2.7-fold higher: 35 nM for the first, 13 nM for the second.

First: O=C(NCc1ccccc1)[C@H]1CCCN1c1nc2nc(-c3ccncc3)nc(C3CC3)c2s1 [Example 49]
Second: CN(C)Cc1nc(C2CC2)c2sc(N3CCC[C@@H]3C(=O)NCc3ccccc3)nc2n1 [Example 58]
The IC50 of the first is 8.4-fold lower: 76 nM for the first, 640 nM for the second.

Going from `O=C(NCc1ccccc1)[C@H]1CCCN1c1nc2nc(C(F)F)nc(C3CCOCC3)c2s1` [Example 55] to `CCOc1nc(C2CCOCC2)nc2nc(N3CCC[C@@H]3C(=O)NCc3ccccc3)sc12` [Example 75], the IC50 falls from 410 nM to 95 nM (4.3-fold).

First: COCc1nc(C(F)(F)F)c2sc(N3CCC[C@@H]3C(=O)NCc3ccccc3)nc2n1 [Example 56]
Second: CCNc1nc(C(F)(F)F)nc2nc(N3CCC[C@@H]3C(=O)NCc3ccccc3)sc12 [Example 67]
The IC50 of the first is 19-fold higher: 230 nM for the first, 12 nM for the second. The second is the more potent here.

Going from `O=C(NCc1ccccc1)[C@H]1CCCN1c1nc2ncnc(OCC(F)(F)F)c2s1` [Example 70] to `O=C(NCc1ccccc1)[C@H]1CCCN1c1nc2ncnc(OC3CCC3)c2s1` [Example 89, (R)—N-benzyl-1-[7-(cyclobutyloxy)[1,3]thiazolo[4,5-d]pyrimidin-2-yl]pyrrolidine-2-carboxamide], the IC50 falls from 160 nM to 46 nM (3.5-fold).

First: CC(C)(C#N)c1ncnc2nc(N3CCC[C@@H]3C(=O)NCc3ccccc3)sc12 [Example 76, (R)—N-benzyl-1-[7-(2-cyanopropan-2-yl)[1,3]thiazolo[4,5-d]pyrimidin-2-yl]pyrrolidine-2-carboxamide]
Second: CC(C)(C#N)c1cnc2nc(N3CCC[C@@H]3C(=O)NCc3ccccc3)sc2c1 [Example 113, (R)—N-benzyl-1-[6-(2-cyanopropan-2-yl)[1,3]thiazolo[4,5-b]pyridin-2-yl]pyrrolidine-2-carboxamide]
The IC50 of the first is 18-fold higher: 1500 nM for the first, 85 nM for the second.

`Cc1nc(-c2ccc(F)cc2)nc2nc(N3CCC[C@@H]3C(=O)NCc3ccccc3)sc12` [Example 78] and `CCOc1nc(C)c2sc(N3CCC[C@@H]3C(=O)NCc3ccccc3)nc2n1` [Example 88] are within 1.5-fold of each other in IC50: 550 nM for the first, 420 nM for the second.

Compared with `Cc1nc(OC2CCOCC2)nc2nc(N3CCC[C@@H]3C(=O)NCc3ccccc3)sc12` [Example 84], `O=C(NCc1ccccc1)[C@H]1CCCN1c1nc2ncnc(OC3CCOCC3)c2s1` [Example 90] is 3-fold lower in IC50: 390 nM for the first, 130 nM for the second. The second is the more potent here.

First: CN(c1nc2ncnc(C3CC3)c2s1)C(C)(C)C(=O)NCc1ccccc1 [Example 92]
Second: CC(C)c1cnc2nc(N3CCC[C@@H]3C(=O)NCc3ccccc3)sc2c1 [Example 111]
The IC50 of the first is 10-fold higher: 2100 nM for the first, 210 nM for the second. The second is the more potent here.

`O=C(NCc1ccccc1)[C@H]1CCCN1c1nc2nc(CN3CCOCC3)nc(C3CC3)c2s1` [Example 98] and `O=C(NCc1ccccc1)[C@H]1CCCN1c1nc2ncc(C3CCOCC3)cc2s1` [Example 129] are within 1.5-fold of each other in IC50: 75 nM for the first, 72 nM for the second.

`CCc1nc(-n2nccn2)nc2nc(N3CCC[C@@H]3C(=O)NCc3ccccc3)sc12` [Example 101, (R)—N-benzyl-1-[7-ethyl-5-(2H-1,2,3-triazol-2-yl)[1,3]thiazolo[4,5-d]pyrimidin-2-yl]pyrrolidine-2-carboxamide] and `CCc1nc(-n2nc(C)cc2C)nc2nc(N3CCC[C@@H]3C(=O)NCc3ccccc3)sc12` [Example 103, (R)—N-benzyl-1-[5-(3,5-dimethyl-1H-pyrazol-1-yl)-7-ethyl[1,3]thiazolo[4,5-d]pyrimidin-2-yl]pyrrolidine-2-carboxamide] are within 1.5-fold of each other in IC50: 150 nM for the first, 200 nM for the second.

Going from `Cc1nc2nc(N3CCC[C@@H]3C(=O)NCc3ccccc3)sc2c(=O)n1C` [Example 109, (R)—N-benzyl-1-(5,6-dimethyl-7-oxo-6,7-dihydro[1,3]thiazolo[4,5-d]pyrimidin-2-yl)pyrrolidine-2-carboxamide] to `Cc1cnc2nc(N3CCC[C@@H]3C(=O)NCc3ccccc3)sc2c1C#N` [Example 136, (R)—N-benzyl-1-(7-cyano-6-methyl[1,3]thiazolo[4,5-b]pyridin-2-yl)pyrrolidine-2-carboxamide], the IC50 falls from 840 nM to 490 nM (1.7-fold). The second is the more potent here.

`N#CC1(c2cnc3nc(N4CCC[C@@H]4C(=O)NCc4ccccc4)sc3c2)CCC1` [Example 115] and `N#CC1(c2cnc3nc(N4CCC[C@@H]4C(=O)NCc4ccccc4)sc3c2)CCOCC1` [Example 116] are within 1.5-fold of each other in IC50: 70 nM for the first, 90 nM for the second.

Compared with `COCC1(c2cnc3nc(N4CCC[C@@H]4C(=O)NCc4ccccc4)sc3c2)CC1` [Example 117], `COC1(c2cnc3nc(N4CCC[C@@H]4C(=O)NCc4ccccc4)sc3c2)CCC1` [Example 127] is 1.6-fold higher in IC50: 170 nM for the first, 280 nM for the second. The first is the more potent here.

Going from `Cc1cc2sc(N3CCC[C@@H]3C(=O)NC3(c4ccccc4)CC3)nc2nc1C` [Example 120] to `O=C(NCc1ccccc1)[C@H]1CCCN1c1nc2ncc(C3(O)CCC3)cc2s1` [Example 126], the IC50 falls from 530 nM to 190 nM (2.8-fold).

Going from `O=C(NCc1ccccc1)[C@H]1CCCN1c1nc2ncc(C(F)(F)F)cc2s1` [Example 124] to `Cc1cnc2nc(N3CCC[C@@H]3C(=O)NCc3ccccc3)sc2c1` [Example 134], the IC50 falls from 710 nM to 200 nM (3.5-fold).

`Cc1nc(-c2cnc3nc(N4CCC[C@@H]4C(=O)N[C@H](C)c4ccccc4)sc3c2)no1` [Example 148, (R)-1-[6-(5-methyl-1,2,4-oxadiazol-3-yl)[1,3]thiazolo[4,5-b]pyridin-2-yl]-N-[(1R)-1-phenylethyl]pyrrolidine-2-carboxamide] and `Cc1nc(-c2c(C)cnc3nc(N4CCC[C@@H]4C(=O)NCc4ccccc4)sc23)no1` [Example 149] are within 1.5-fold of each other in IC50: 93 nM for the first, 110 nM for the second.

Going from `O=C(NCc1ccccc1)[C@H]1CCCN1c1nc2ncc(OC3COC3)cc2s1` [Example 151] to `COCc1cnc2nc(N3CCC[C@@H]3C(=O)NCc3ccccc3)sc2c1` [Example 159], the IC50 rises from 270 nM to 640 nM (2.4-fold). The first is the more potent here.
